Patent US10195185B2, “3-(1H-imidazo[4,5-C]pyridin-2-yl)-1H-pyrazolo[4,3-B]pyridines and therapeutic uses thereof” (Samumed, LLC, priority 2015, dated 2019)

Legend:
Format in all cases: cell-based
[1] = tested on: Wnt activity (Wnt-responsive human Sp5 promoter, TCF/LEF binding sites) in SW480 colon carcinoma cells; test: Wnt activity screening assay: Sp5-Luc luciferase reporter gene in SW480 cells; conditions: for EC50: 10-point dose-response from 10 μM, incubated overnight; for inhibition at 10 µM: given for EC50 of >10 μM, read-out: percent inhibition at 10 μM
In short: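 Luminescence (BrightGlo) was normalised to DMSO-only wells and fitted with a four-parameter variable-slope model for EC50; beyond 10 μM, % inhibition at 10 μM is given. Stable Sp5-Luc SW480 reporter cells, 4,000/well in 1% FBS, were exposed overnight at 37 °C to compounds, top 10 μM, 1:3 dilutions, 0.1% DMSO.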

SW480 colon cancer cells = test: Cell viability assay (CellTiter-Blue), four days; conditions: Homo sapiens, 96 h; for EC50: CellTiter-Blue cell viability; for inhibition at 10 µM: read-out: percent inhibition at 10 μM (given for EC50 of >10 μM)
In short: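 Four-day viability readout in SW480 cells: compound at 0.0045–10 μM (1:3 series), DMSO controls in eight replicates, CellTiter-Blue fluorescence after ~3 h. Values are regression-derived EC50s, or percent inhibition at 10 μM when EC50 exceeds 10 μM.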

[2] = tested on: primary human mesenchymal stem cells (hMSCs); test: Induction of chondrogenesis in hMSCs (nodule area, Rhodamine B / Nile Red); conditions: TGF-β3 as positive control; for Emax: read-out: Max. Activity as % TGF-β3 activity; for EC50: concentration required to induce 50% levels of chondrogenesis, read-out: Conc (nM) of 50% TGF-β3 activity
Protocol: Representative compounds were screened using primary human mesenchymal stem cells (hMSCs) to determine their ability to induce chondrogenesis (process by which cartilage is developed).
Primary human mesenchymal stem cells (hMSCs) were purchased from Lonza (Walkersville, Md.) and expanded in Mesenchymal Stem Cell Growth Media (Lonza). Cells between passage 3 and 6 were used for the experiments.
Each compound was dissolved in DMSO as a 10 mM stock and used to prepare compound source plates. For the 96 well assay, serial dilution (1:3, 6-point dose-response curves from 2700 nM to 10 nM) and compound transfer was performed using the ECHO 550 (Labcyte, Sunnyvale, Calif.) into 96-well clear bottom assay plates (Greiner Bio-One) with appropriate DMSO backfill for a final DMSO concentration of 0.03%. hMSCs were plated at 20,000 cells/well in 250 μL/well Incomplete Chondrogenic Induction Medium (Lonza; DMEM, dexamethasone, ascorbate, insulin-transferrin-selenium [ITS supplement], gentamycin-amphotericin [GA-1000], sodium pyruvate, proline and L-glutamine). TGF-β3 (10 ng/mL) was used as a positive control for differentiation while negative control wells were treated with 75 nL DMSO for normalization and calculating EC50 values. For the 384 well assay, serial dilution (1:3, 8-point dose-response curves from 5000 nM to 2.2 nM) and compound transfer was performed using the ECHO 550 (Labcyte, Sunnyvale, Calif.) into 384-well clear bottom assay plates (Greiner Bio-One) with appropriate DMSO backfill for a final DMSO concentration of 0.03%. hMSCs were plated at 8,000 cells/well in 80 μL/well Incomplete Chondrogenic Induction Medium (Lonza; DMEM, dexamethasone, ascorbate, insulin-transferrin-selenium [ITS supplement], gentamycin-amphotericin [GA-1000], sodium pyruvate, proline and L-glutamine). TGF-β3 (10 ng/mL) was used as a positive control for differentiation while negative control wells were treated with 25 nL DMSO for normalization and calculating EC50 values. Cells were incubated at 37° C. and 5% CO2 for 6 days. To image chondrogenic nodules, the cells were fixed using 4% formaldehyde (Electron Microscopy Sciences), and stained with 2 μg/mL Rhodamine B (Sigma-Aldrich) and 20 μM Nile Red (Sigma-Aldrich) [Johnson K., et. al, A Stem Cell-Based Approach to Cartilage Repair, Science, (2012), 336(6082), 717-721]. The nodules imaged (25 images per well for 96 well plates and 9 images per well for 384 well plates at 10× magnification) by excitation at 531 nm and emission at 625 nm and quantified using the CellInsight CX5 (Thermo Scientific). Area of nodules in each well was normalized to the average of 3 DMSO treated wells on the same plate using Excel (Microsoft Inc.). The normalized averages (fold change over DMSO) of 2 or 3 replicate wells for each compound concentration were calculated. Due to solubility limitations of some of the compounds, curve fitting was incomplete leading to inaccurate EC50 determinations.
Using TGF-β3 as a positive control, the concentration of representative compounds required to induce 50% levels of chondrogenesis is reported. In addition, the maximum activity of each compound and the respective dose that each compound reached maximum chondrogenesis activity is reported.

Compound | EC50 [1] | EC50 (SW480 colon cancer cells) | EC50 [2] | Emax [2] | inhibition at 10 µM [1] | inhibition at 10 µM (SW480 colon cancer cells)
O=C(Cc1ccccc1)Nc1cncc(-c2ccc3[nH]nc(-c4nc5c(-c6ccncc6)nccc5[nH]4)c3n2)c1 [Compound 122, 2-phenyl-N-(5-(3-(4-(pyridin-4-yl)-1H-imidazo[4,5-c]pyridin-2-yl)-1H-pyrazolo[4,3-b]pyridin-5-yl)pyridin-3-yl)acetamide] | > 10000 nM | > 10000 nM | 30 nM | 74% | 1% | 3.2%
Cc1cn(-c2nccc3[nH]c(-c4n[nH]c5ccc(-c6cncc(NC(=O)CC(C)C)c6)nc45)nc23)cn1 [Compound 198] | 3980 nM | 8480 nM | 30 nM | 69% | – | –
CCC(=O)Nc1cncc(-c2ccc3[nH]nc(-c4nc5c(-c6cccs6)nccc5[nH]4)c3n2)c1 [Compound 337, N-(5-(3-(4-(Thiophen-2-yl)-1H-imidazo[4,5-c]pyridin-2-yl)-1H-pyrazolo [4,3-b]pyridin-5-yl)pyridin-3-yl)propionamide] | > 10000 nM | > 10000 nM | 7 nM | 179% | 31.8% | 39.4%
CC(C)C(=O)Nc1cncc(-c2ccc3[nH]nc(-c4nc5c(-c6cccnc6)nccc5[nH]4)c3n2)c1 [Compound 93, N-(5-(3-(4-(Pyridin-3-yl)-1H-imidazo[4,5-c]pyridin-2-yl)-1H-pyrazolo[4,3-b]pyridin-5-yl)pyridin-3-yl)isobutyramide] | > 10000 nM | > 10000 nM | – | 32% | 25.1% | 5.9%
CCNCc1cncc(-c2ccc3[nH]nc(-c4nc5c(-c6ccccn6)nccc5[nH]4)c3n2)c1 [Compound 146, N-((5-(3-(4-(Pyridin-2-yl)-1H-imidazo[4,5-c]pyridin-2-yl)-1H-pyrazolo[4,3-b]pyridin-5-yl)pyridin-3-yl)methyl)ethanamine] | > 10000 nM | 4760 nM | – | 28% | 35.5% | –
Nc1cncc(-c2ccc3[nH]nc(-c4nc5c(-c6ccccc6F)nccc5[nH]4)c3n2)c1 [Compound 59, 5-(3-(4-(2-Fluorophenyl)-1H-imidazo[4,5-c]pyridin-2-yl)-1H-pyrazolo[4,3-b]pyridin-5-yl)pyridin-3-amine] | > 10000 nM | > 10000 nM | 10 nM | 108% | 27.7% | 0%

Stronger by EC50 [1], values ahead:

EC50 [1] | EC50 (SW480 colon cancer cells) | EC50 [2] | Compound | Emax [2] | inhibition at 10 µM [1] | inhibition at 10 µM (SW480 colon cancer cells)
719 nM | 1160 nM | 10 nM | CC(C)CC(=O)Nc1cncc(-c2ccc3[nH]nc(-c4nc5c(-c6ccc(Cl)s6)nccc5[nH]4)c3n2)c1 [Compound 1037, N-(5-(3-(4-(5-Chlorothiophen-2-yl)-1H-imidazo[4,5-c]pyridin-2-yl)-1H-pyrazolo [4,3-b]pyridin-5-yl)pyridin-3-yl)-3-methylbutanamide] | 104% | – | –
206 nM | 638 nM | – | Cc1ccncc1-c1ccc2[nH]nc(-c3nc4c(-c5ccsc5)nccc4[nH]3)c2n1 [Compound 285, 5-(4-Methylpyridin-3-yl)-3-(4-(thiophen-3-yl)-1H-imidazo[4,5-c]pyridin-2-yl)-1H-pyrazolo[4,3-b]pyridine] | 47% | – | –
3080 nM | 1630 nM | 7 nM | CN(C)CC(=O)Nc1cncc(-c2ccc3[nH]nc(-c4nc5c(-c6cccc(F)c6)nccc5[nH]4)c3n2)c1 [Compound 969, 2-(Dimethylamino)-N-(5-(3-(4-(3-fluorophenyl)-1H-imidazo[4,5-c]pyridin-2-yl)-1H-pyrazolo[4,3-b]pyridin-5-yl)pyridin-3-yl)acetamide] | 63% | – | –
